Measurements published in the supplement of paper PMC8671470.
± gives the standard deviation of the averaged measurements.

tested on: HL-60; experiment: cell viability (% survival relative to DMSO control); higher = less cytotoxic; details: 10 µM; 72 h; co-treatment: AZD3965 100 nM
Method in brief: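 In 384-well plates, the full library was rescreened in duplicate on HL-60 cells in RPMI 1640 with 10% FBS, at 1–10,000 nM in five tenfold concentrations, for 72 h at 37 °C, 5% CO2. Each run also held DMSO or 100 nM of one of three metabolic inhibitors. Viability was measured by CellTiter-Glo and normalised to DMSO wells and to wells with proteasome inhibitor, present at 10 μM. Any area under the curve comes from four-parameter log-logistic fitting with drc and PharmacoGx.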

| SMILES | cell viability |
| --- | --- |
| N#CC(C#N)=NNc1ccc(OC(F)(F)F)cc1 [FCCP] | 8.55 ± 0.41% |
| O=C(O)Cn1nnc(-c2cc(N3CCC(Oc4cc(F)ccc4Br)CC3)no2)n1 [MK-8245] | 108 ± 6.2% |
| C=C(C=NNC(=N)N)NNC(=N)N [Mitoguazone] | 48.6 ± 1.8% |
| COc1cc(/C=C/C(=O)N2CCC=CC2=O)cc(OC)c1OC [Piperlongumine] | -0.192 ± 0.13% |
| CC[C@@]1(O)C(=O)OCc2c1cc1n(c2=O)Cc2cc3c(CN(C)C)c(O)ccc3nc2-1 [Topotecan] | 2.51 ± 0.3% |

same assay, conditions: 10 µM; 72 h; co-treatment: DMSO vehicle

| SMILES | cell viability |
| --- | --- |
| O=C1O/C(=C/Br)CCC1c1cccc2ccccc12 (centres undefined) [Bromoenol Lactone] | 87.9 ± 2.6% |
| N#CC(C#N)=NNc1ccc(OC(F)(F)F)cc1 [FCCP] | 10.3 ± 0.31% |
| O=C(O)Cn1nnc(-c2cc(N3CCC(Oc4cc(F)ccc4Br)CC3)no2)n1 [MK-8245] | 100 ± 2.8% |
| C=C(C=NNC(=N)N)NNC(=N)N [Mitoguazone] | 69.6 ± 3% |
| COc1cc(/C=C/C(=O)N2CCC=CC2=O)cc(OC)c1OC [Piperlongumine] | -0.533 ± 0.36% |
| CC[C@@]1(O)C(=O)OCc2c1cc1n(c2=O)Cc2cc3c(CN(C)C)c(O)ccc3nc2-1 [Topotecan] | 2.79 ± 1.4% |

same assay, conditions: 10 µM; 72 h; co-treatment: GSK2194069 100 nM

| SMILES | cell viability |
| --- | --- |
| O=C1O/C(=C/Br)CCC1c1cccc2ccccc12 (centres undefined) [Bromoenol Lactone] | 115 ± 20% |
| N#CC(C#N)=NNc1ccc(OC(F)(F)F)cc1 [FCCP] | 13.8 ± 3.3% |
| O=C(O)Cn1nnc(-c2cc(N3CCC(Oc4cc(F)ccc4Br)CC3)no2)n1 [MK-8245] | 97.4 ± 3.8% |
| C=C(C=NNC(=N)N)NNC(=N)N [Mitoguazone] | 76.9 ± 2.1% |
| COc1cc(/C=C/C(=O)N2CCC=CC2=O)cc(OC)c1OC [Piperlongumine] | -0.0941 ± 0.82% |
| CC[C@@]1(O)C(=O)OCc2c1cc1n(c2=O)Cc2cc3c(CN(C)C)c(O)ccc3nc2-1 [Topotecan] | 3.68 ± 0.34% |

same assay, conditions: 10 µM; 72 h; co-treatment: pictilisib 100 nM

| SMILES | cell viability |
| --- | --- |
| O=C1O/C(=C/Br)CCC1c1cccc2ccccc12 (centres undefined) [Bromoenol Lactone] | 104 ± 13% |
| N#CC(C#N)=NNc1ccc(OC(F)(F)F)cc1 [FCCP] | 9.69 ± 3.2% |
| O=C(O)Cn1nnc(-c2cc(N3CCC(Oc4cc(F)ccc4Br)CC3)no2)n1 [MK-8245] | 103 ± 4.2% |
| C=C(C=NNC(=N)N)NNC(=N)N [Mitoguazone] | 56.7 ± 3.5% |
| COc1cc(/C=C/C(=O)N2CCC=CC2=O)cc(OC)c1OC [Piperlongumine] | 3.95 ± 4.7% |
| CC[C@@]1(O)C(=O)OCc2c1cc1n(c2=O)Cc2cc3c(CN(C)C)c(O)ccc3nc2-1 [Topotecan] | 3.31 ± 0.0069% |

tested on: myeloid leukemia patient primary cells Pat.5; experiment: cell viability (% survival relative to DMSO control); higher = less cytotoxic; details: 1 nM; 72 h
Method in brief: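 Thawed, Ficoll-purified mononuclear cells from AML or CML patients in RPMI 1640 with 10% FBS were seeded at 10,000 cells/well on 384-well plates pre-printed with 70 compounds at five tenfold concentrations, 1–10,000 nM, in duplicate, for 72 h. Viability was read by CellTiter-Glo and normalised to DMSO and 10 μM proteasome-inhibitor wells. Where given, area under the curve came from four-parameter log-logistic fits (drc, PharmacoGx R packages).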

| SMILES | cell viability |
| --- | --- |
| O=C1O/C(=C/Br)CCC1c1cccc2ccccc12 (centres undefined) [Bromoenol Lactone] | 44.7% |
| N#CC(C#N)=NNc1ccc(OC(F)(F)F)cc1 [FCCP] | 19.1% |
| O=C(O)Cn1nnc(-c2cc(N3CCC(Oc4cc(F)ccc4Br)CC3)no2)n1 [MK-8245] | > 100% |
| C=C(C=NNC(=N)N)NNC(=N)N [Mitoguazone] | > 100% |
| COc1cc(/C=C/C(=O)N2CCC=CC2=O)cc(OC)c1OC [Piperlongumine] | 6.78% |
| CC[C@@]1(O)C(=O)OCc2c1cc1n(c2=O)Cc2cc3c(CN(C)C)c(O)ccc3nc2-1 [Topotecan] | 91.7% |

same assay, conditions: 10 nM; 72 h

| SMILES | cell viability |
| --- | --- |
| O=C1O/C(=C/Br)CCC1c1cccc2ccccc12 (centres undefined) [Bromoenol Lactone] | 34.4% |
| N#CC(C#N)=NNc1ccc(OC(F)(F)F)cc1 [FCCP] | 52.4% |
| O=C(O)Cn1nnc(-c2cc(N3CCC(Oc4cc(F)ccc4Br)CC3)no2)n1 [MK-8245] | 93.9% |
| C=C(C=NNC(=N)N)NNC(=N)N [Mitoguazone] | 0.912% |
| COc1cc(/C=C/C(=O)N2CCC=CC2=O)cc(OC)c1OC [Piperlongumine] | 82.5% |
| CC[C@@]1(O)C(=O)OCc2c1cc1n(c2=O)Cc2cc3c(CN(C)C)c(O)ccc3nc2-1 [Topotecan] | 66.1% |

same assay, conditions: 100 nM; 72 h

| SMILES | cell viability |
| --- | --- |
| O=C1O/C(=C/Br)CCC1c1cccc2ccccc12 (centres undefined) [Bromoenol Lactone] | 7.92% |
| N#CC(C#N)=NNc1ccc(OC(F)(F)F)cc1 [FCCP] | 14.8% |
| O=C(O)Cn1nnc(-c2cc(N3CCC(Oc4cc(F)ccc4Br)CC3)no2)n1 [MK-8245] | 90.6% |
| C=C(C=NNC(=N)N)NNC(=N)N [Mitoguazone] | 0.265% |
| COc1cc(/C=C/C(=O)N2CCC=CC2=O)cc(OC)c1OC [Piperlongumine] | 13.4% |
| CC[C@@]1(O)C(=O)OCc2c1cc1n(c2=O)Cc2cc3c(CN(C)C)c(O)ccc3nc2-1 [Topotecan] | 53.1% |

same assay, conditions: 1000 nM; 72 h

| SMILES | cell viability |
| --- | --- |
| O=C1O/C(=C/Br)CCC1c1cccc2ccccc12 (centres undefined) [Bromoenol Lactone] | 1.18% |
| N#CC(C#N)=NNc1ccc(OC(F)(F)F)cc1 [FCCP] | < 0% |
| O=C(O)Cn1nnc(-c2cc(N3CCC(Oc4cc(F)ccc4Br)CC3)no2)n1 [MK-8245] | 94.3% |
| C=C(C=NNC(=N)N)NNC(=N)N [Mitoguazone] | 1.33% |
| COc1cc(/C=C/C(=O)N2CCC=CC2=O)cc(OC)c1OC [Piperlongumine] | 11.1% |
| CC[C@@]1(O)C(=O)OCc2c1cc1n(c2=O)Cc2cc3c(CN(C)C)c(O)ccc3nc2-1 [Topotecan] | 19.8% |

same assay, conditions: 10000 nM; 72 h

| SMILES | cell viability |
| --- | --- |
| O=C1O/C(=C/Br)CCC1c1cccc2ccccc12 (centres undefined) [Bromoenol Lactone] | 2.24% |
| N#CC(C#N)=NNc1ccc(OC(F)(F)F)cc1 [FCCP] | 3.45% |
